According to publication PMC10714751 (Microbiology Spectrum, 2023):
≈ marks a conversion by molar mass, not a printed value. Starred links: 1 amine or outer side, 2 acyl side, 3 side chain; linkers in the order of their positions; H or OH if unused. Positions of bridges follow the written chain, without caps; N, C: chain ends. Non-standard residues stand in square brackets, D forms with d. Residues, ends and D or L forms follow the SMILES beside them. *: point of attachment. dAsp(3R-OH) = N[C@@H](C(=O)O)[C@@H](O)C(=O)O; Palmitoleoyl = CCCCCC/C=C\CCCCCCCC(=O)*; X1 = NC[C@H](O)[C@@H](N[*:1])C(=O)[*:2]; X2 = CCC(C)(O)[C@H](N[*:1])C(=O)[*:2]; d(aIle) = CC[C@H](C)[C@@H](N)C(=O)O; d(aThr) = C[C@@H](O)[C@@H](N)C(=O)O; Myristoyl = CCCCCCCCCCCCCC(=O)*; dOrn = NCCC[C@@H](N)C(=O)O; X3 = CC[C@H](C)CCCCC(=O)*; hSer = N[C@@H](CCO)C(=O)O; Dab = NCC[C@H](N)C(=O)O

Columns and labels:
[1] = test system: E. coli DH5α; test: Antimicrobial broth dilution assay
[2] = test system: pGDP2-MCR-1 in C600; test: Antibiotic susceptibility testing of MCR-1-expressing E. coli; conditions: broth dilution, MTT
[3] = test system: E. coli ΔompC, ΔompF; test: Broth dilution assay against OmpC and OmpF knockouts
[4] = test system: pBR322 in C600; test: Antimicrobial broth dilution assay, empty vector control; conditions: MTT
[5] = test system: E. coli C600; test: Antimicrobial broth dilution assay; conditions: MTT
[6] = test system: Yersinia pestis; conditions: cited from earlier work
[7] = test system: Keio E. coli mlaA knockouts (ΔmlaA); test: Broth dilution assay against Keio mlaA knockouts; conditions: triplicate, three biological replicates
[8] = test system: A. baumannii Tn26-mlaA insertion strains AB8497, AB8498, AB8499; test: Broth dilution assay against mlaA transposon mutants; conditions: for sensitivity of the mlaA mutants in comparison to the wild type: AB8497, AB8498, AB8499; for change of MIC90 against AB8497 versus wild type: mlaA insertion at position 132, twofold dilutions from 20 µg/mL; for change of MIC90 against AB8497 versus wild type / change of MIC90 against AB8499 versus wild type: 10 µg/mL tetracycline; for change of MIC90 against AB8499 versus wild type: mlaA insertion at position 507
[9] = test system: evolved turnercyclamycin B-resistant E. coli DH5α; test: Broth dilution assay against evolved resistant strains
[10] = test system: A. baumannii AB5075UW ΔlpxC::ISAbaI; test: Broth dilution assay against LpxC-deficient mutant; conditions: MIC90 ΔlpxC vs WT 5075UW, Fig. 2A
[11] = test system: pGDP2-MCR-1 in DH5α; test: Antibiotic susceptibility testing of MCR-1-expressing E. coli
[12] = test system: pBR322 in DH5α; test: Antimicrobial broth dilution assay, empty vector control; conditions: MTT
[13] = test system: A. baylyi ADP1 ΔpldA; test: Broth dilution assay against pldA knockout; conditions: Fig. S4
[14] = test system: E. coli DH5α; test: Evolution of turnercyclamycin-resistant E. coli by sublethal dose passaging; conditions: for time of exposure to reach 32× the original MIC90: daily serial passaging, up to 63 d
[15] = Pharmacokinetics in mice; assay type: in vivo; conditions: 5mg/kg IV, plasma, LC-MS/MS
Method: Eurofins used mice from BioLASCO Taiwan.
Protocols were performed at Eurofins (Taiwan). Turnercyclamycin A in plasma was measured by liquid chromatography-tandem mass spectrometry, and graphs illustrating the mean plasma concentrations (mean ± SD) over time were generated. PK parameters were obtained using non-compartmental analysis of the plasma data with WinNonlin.

[16] = female, BALB/c, mouse, mice, non-compartmental analysis

## CC[C@H](C)CCCCC(=O)N[C@@H](CCN)C(=O)N[C@H](C(=O)N[C@@H](CCN)C(=O)N[C@H]1CCNC(=O)[C@H]([C@@H](C)O)NC(=O)[C@H](CCN)NC(=O)[C@H](CCN)NC(=O)[C@H](CC(C)C)NC(=O)[C@@H](CC(C)C)NC(=O)[C@H](CCN)NC1=O)[C@@H](C)O [Colistin, colistin (polymyxin E)] (X3-[Dab]T[Dab][Dab][Dab][dL]L[Dab][Dab]T; lactam 4-C)
[1]; DH5α WT (Table 2)
  MIC90: 0.5 µg/mL (≈ 0.428 µM)
[1]; text summary: both E. coli parent and vector-control strains (DH5α and C600)
  MIC90: 0.5 µg/mL (≈ 0.428 µM)
[2]
  MIC90: 8 µg/mL (≈ 6.84 µM)
[3]
  resistance of OmpC and OmpF knockouts: not resistant
[4]
  MIC90: 1 µg/mL (≈ 0.855 µM)
[5]
  MIC90: 0.5 µg/mL (≈ 0.428 µM)
[6]
  susceptibility of Yersinia pestis after LPS modification with 4-amino-4-deoxy-L-arabinose: blocked
[7]
  MIC90: 0.25 µg/mL (≈ 0.214 µM)
[8]
  sensitivity of the mlaA mutants in comparison to the wild type: potentially slightly more sensitive
[9]; Strain 1
  MIC90: 0.5 µg/mL (≈ 0.428 µM)
[9]; Strain 2 (found contaminated with Staphylococcus)
  MIC90: 0.5 µg/mL (≈ 0.428 µM)
[9]; Strain 3
  MIC90: 0.5 µg/mL (≈ 0.428 µM)
[9]; Strain 4
  MIC90: 0.5 µg/mL (≈ 0.428 µM)
[9]; Strain 5
  MIC90: 0.5 µg/mL (≈ 0.428 µM)
[10]
  loss in susceptibility of A. baumannii ΔlpxC in comparison to the wild-type strain: greater than fourfold
[11]; MIC90 ratio mcr-1 strains / parent strains
  loss of potency against strains expressing mcr-1 versus parent: 16 fold
[11]; text summary: strains expressing mcr-1 (DH5α and C600)
  MIC90: 8 µg/mL (≈ 6.84 µM)
[12]
  MIC90: 0.5 µg/mL (≈ 0.428 µM)
[13]
  resistance of ΔpldA strain compared with WT A. baylyi ADP1: did not significantly demonstrate resistance

## CO[C@H]1/C=C/O[C@@]2(C)Oc3c(C)c(O)c4c(O)c(cc(O)c4c3C2=O)NC(=O)/C(C)=C\C=C\[C@H](C)[C@H](O)[C@@H](C)[C@@H](O)[C@@H](C)[C@H](OC(C)=O)[C@@H]1C [Rifamycin, rifamycin]
[8]
  sensitivity of the mlaA mutants in comparison to the wild type: increase in sensitivity

## CCCCCCCCCCCCCC(=O)N[C@H](CCCN)C(=O)N[C@@H](CO)C(=O)N[C@H](C(=O)N[C@@H](C(=O)N[C@@H](C(=O)N[C@H]1C(=O)NCC(=O)N[C@@H](C(C)(O)CC)C(=O)N[C@H]([C@@H](C)CC)C(=O)N[C@@H](CCO)C(=O)N[C@@H](C)C(=O)N[C@H]([C@@H](C)CC)C(=O)N[C@@H](CCC(=O)O)C(=O)O[C@@H]1C)[C@@H](O)CN)[C@@H](O)C(=O)O)C(C)C (stereo partly drawn) [Turnercyclamycin A] (Myristoyl-[dOrn]SV[dAsp(3R-OH)][X1][d(aThr)]G[X2][d(aIle)][hSer]A[d(aIle)]E; ester 6-C)
[14]; daily passaging at sub-MIC for 63 d
  resistance reached by serial passaging (× original MIC90): 8 ×
[14]
  time of exposure to reach 32× the original MIC90: > 63 days
[8]
  change of MIC90 against AB8497 versus wild type: retained wild-type potency
  change of MIC90 against AB8499 versus wild type: retained wild-type potency
[9]; Table 2, Fig. S3
  sensitivity of turnercyclamycin B-resistant strains compared with wild type: more sensitive
[10]
  loss in susceptibility of A. baumannii ΔlpxC in comparison to the wild-type strain: greater than fourfold
[15]; mice, non-compartmental analysis
  AUC/D: 58080 kg·ng·h/mL/mg
[15]; BALB/c, mouse, ALB/c female mice, non-compartmental analysis (WinNonlin)
  half-life: 4.35 h
[15]; [16]
  AUC(0-inf): 290 µg·h/mL
  AUC(0-t): 285 µg·h/mL
  C0: 33700 ng/mL
[15]; female, BALB/c, mouse, mice, non-compartmental analysis, read-out: CL (clearance rate) (converted)
  clearance: 0.29 mL/min/kg
[15]; female, BALB/c, mouse, mice, non-compartmental analysis, read-out: MRT (mean residence time)
  MRT: 5.83 h
[15]; female, BALB/c, mouse, mice, non-compartmental analysis, read-out: VSS (Vd at steady state)
  Vd: 0.1 L/kg

## CCCCCC/C=C\CCCCCCCC(=O)N[C@H](CCCN)C(=O)N[C@@H](CO)C(=O)N[C@H](C(=O)N[C@@H](C(=O)N[C@@H](C(=O)N[C@H]1C(=O)NCC(=O)N[C@@H](C(C)(O)CC)C(=O)N[C@H]([C@@H](C)CC)C(=O)N[C@@H](CCO)C(=O)N[C@@H](C)C(=O)N[C@H]([C@@H](C)CC)C(=O)N[C@@H](CCC(=O)O)C(=O)O[C@@H]1C)[C@@H](O)CN)[C@@H](O)C(=O)O)C(C)C (stereo partly drawn) [Turnercyclamycin B] (Palmitoleoyl-[dOrn]SV[dAsp(3R-OH)][X1][d(aThr)]G[X2][d(aIle)][hSer]A[d(aIle)]E; ester 6-C)
[14]
  time of exposure to reach 32× the original MIC90: 8 to 14 days
[8]
  change of MIC90 against AB8497 versus wild type: doubled
  change of MIC90 against AB8499 versus wild type: fourfold
